Target: hDGAT2 (Homo sapiens (Human), UniProt Q96PD7)
Assay: In vitro DGAT2 assay, determination of IC50 values
Assay type: biochemical
Conditions: geometric mean; hDGAT2 membrane fraction, [1-14C]decanoyl-CoA and 1,2-didecanoyl-sn-glycerol substrates
Description: For the expression of hDGAT2, SF9 cells (20 L) grown in Sf900II media were infected with hDGAT2 baculovirus at a multiplicity of infection of 1 in a Wave Bioreactor System 20/50P wave bag (GE Healthcare). After 40 hours of infection, the cells were then harvested by centrifugation at 5,000×g. The cell pellets were washed by resuspending in phosphate buffered saline (PBS) and collected by centrifugation at 5,000×g. The cell paste was flash frozen in liquid N2 and stored at −80° C. until needed. All operations below were at 4° C. unless otherwise noted. The cells were resuspended in lysis buffer (50 mM Tris-HCl, pH 8.0, 250 mM sucrose) including 1 mM ethylenediaminetetraacetic acid (EDTA) and the complete protease inhibitor cocktail (Roche Diagnostics) at a ratio of 3 ml buffer per 1 g cell paste. The cells were lysed by dounce homogenizer. The cell debris was removed by centrifugation at 1,000×g for 20 min, and the supernatant was centrifuged at 100,000×g for 1 hour. […]
For determination of IC50 values, the reactions were carried out in 384-well white Polyplates (Perkin Elmer) in a total volume of 20 μL. […] Plates were centrifuged at 2,000×g for 1 minute in an Allegra 6R Centrifuge (Beckman Coulter) and then were sealed again with fresh covers before reading in a 1450 Microbeta Wallac Trilux Scintillation Counter (Perkin Elmer).

Sequence of hDGAT2 (Q96PD7 whole entry): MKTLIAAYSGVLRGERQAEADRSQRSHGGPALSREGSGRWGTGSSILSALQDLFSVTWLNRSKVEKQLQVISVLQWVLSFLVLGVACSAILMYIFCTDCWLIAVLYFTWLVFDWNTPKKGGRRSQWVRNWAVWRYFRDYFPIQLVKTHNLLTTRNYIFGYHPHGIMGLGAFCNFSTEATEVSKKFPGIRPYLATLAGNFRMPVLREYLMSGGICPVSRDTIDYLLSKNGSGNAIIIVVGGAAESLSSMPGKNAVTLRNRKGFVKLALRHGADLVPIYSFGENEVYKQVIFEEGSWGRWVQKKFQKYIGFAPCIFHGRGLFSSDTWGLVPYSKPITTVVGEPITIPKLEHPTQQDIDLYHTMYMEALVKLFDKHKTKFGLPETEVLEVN

`CCOc1cccnc1Oc1cncc(-c2ncc(C(=O)N[C@H]3CCOC3)cn2)c1` [Example 1, (S)-2-(5-((3-ethoxypyridin-2-yl)oxy)pyridin-3-yl)-N-(tetrahydrofuran-3-yl)pyrimidine-5-carboxamide] gave an IC50 of 17.2 nM.
